Reference: patent publication US20060281901A1, “Method for the production of amyloid-beta peptide using ubiquitin” (priority 2005, published 2006)

Legend:
[1] = tested on: Human neuroblastoma SH-SY5Y cell line; test: MTT assay of cell activity (mitochondria dehydrogenase activity); format: cell-based; settings: for degree of suppression of the cell activity by concentration (MTT): SH-SY5Y cells, 1, 2 or 4 μM, 24 hrs, FIG. 4A
Experimental: To compare the physiological activity of the genetic recombinant amyloid-β peptide produced according to the present invention with that of the amyloid-β peptide produced by a chemical synthetic method, their mitochondrial activities in eykaryotic cells were examined as follows:
First, 0.45 mg of the amyloid-β peptide prepared in Example 3 was dissolved in 20 μl of dimethyl sulfoxide, and 980 μl of DMEM was added thereto, to prepare the amyloid-β peptide solution at a concentration of 100 μM, which was stored at 4[…] for 24 hrs and subjected to centrifugation to separate the supernatant from the precipitate. The supernatant was distributed to an eppendorf tube at a volume of 50 μl and stored at −80[…].
(§1) Human neuroblastoma SH-SY5Y cell line (ATCC CRL-2266) was suspended in DMEM containing 10% FBS, distributed to each well of a 96-well plate at a concentration of 7×10^3 cells/well, and then, cultured at 37 °C for 24 hrs. The genetic recombinant amyloid-β peptide solution prepared above was added to each well at a concentration of 1, 2 or 4 μM, and the well plate was incubated at 37 °C for 24 hrs. The cell activity was measured by means of MTT (3-(4,5-dimethylthiazol-2-yl)-2,5-diphenyltetrazolium bromide) assay which is capable of measuring the in vivo mitochondria dehydrogenase activity. MTT was added to each well at a concentration of 0.8 mg/ml, and the reactants in the well were allowed to react at 37 °C for 5 hrs to induce in vivo dehydrogenase reaction of mitochondria. Formazan crystals generated from such reaction were dissolved in dimethyl sulfoxide and its adsorbance was measured at 550 nm.
Also shown in FIG. [[4a]]4A are the results obtained using the recombinant ubiquitin (H6Ub: ●) control, the ubiquitin-amyloid-β peptide fusion protein (H6Ub-Aβ42: ▪) and the chemically synthesized amyloid-β peptide (Aβ42: □).

[2] = tested on: Human neuroblastoma SH-SY5Y cell line; test: level of apoptosis by trypan blue staining; format: cell-based; settings: 5 μM, 36 hrs, FIG. 4C
Experimental: as §1
After the cells were treated with 5 μM of the amyloid-β peptide for 36 hrs, black cells stained with trypan blue were examined to determine the level of apoptosis induced.

[3] = listed as recombinant amyloid-β peptide

## rAβ42: genetic recombinant amyloid-β peptide (amyloid-beta42, SEQ ID NO: 19) cleaved from a ubiquitin fusion protein expressed in E. coli
[1]; SH-SY5Y cells, 5 μM, 12, 24 and 48 hrs, FIG. 4B
  changes in the cell activity according to the treatment time (MTT): as the treatment time becomes longer, the cell activity becomes further reduced
[1]
  degree of suppression of the cell activity by concentration (MTT): can suppress the cell activity just like the chemically synthesized amyloid-β peptide
[1]; [3]
  degree of suppression of the cell activity by concentration (MTT): can suppress the cell activity
[2]
  level of apoptosis induced (trypan blue staining): showed an apoptotic activity, which was significantly higher than the recombinant ubiquitin (H6Ub) or ubiquitin-amyloid fusion protein (H6Ub-Aβ42), the activity being equal to, or slightly higher than, the chemically synthesized amyloid-β peptide (Aβ42)
[2]; [3]
  level of apoptosis induced (trypan blue staining): induce apoptosis to an extent which is equal to that achievable with chemically synthesized amyloid-β peptide
